Experimental data from ChEMBL document CHEMBL4814042, “Design and synthesis of C-aryl angular luotonins via a one-pot aza-Nazarov-Friedlander sequence and their Topo-I inhibition studies along with C-aryl vasicinones and luotonins” (Bioorg Med Chem Lett, 2021).
Active and inactive are the calls of the source. No cut-off for these calls is given here.

Each molecule was assayed against T1, DNA topoisomerase 1 (Homo sapiens) (UniProt P11387) (assay: Inhibition of human Topoisomerase 1 at 100 uM). Conditions: not given.
T1 sequence (whole entry): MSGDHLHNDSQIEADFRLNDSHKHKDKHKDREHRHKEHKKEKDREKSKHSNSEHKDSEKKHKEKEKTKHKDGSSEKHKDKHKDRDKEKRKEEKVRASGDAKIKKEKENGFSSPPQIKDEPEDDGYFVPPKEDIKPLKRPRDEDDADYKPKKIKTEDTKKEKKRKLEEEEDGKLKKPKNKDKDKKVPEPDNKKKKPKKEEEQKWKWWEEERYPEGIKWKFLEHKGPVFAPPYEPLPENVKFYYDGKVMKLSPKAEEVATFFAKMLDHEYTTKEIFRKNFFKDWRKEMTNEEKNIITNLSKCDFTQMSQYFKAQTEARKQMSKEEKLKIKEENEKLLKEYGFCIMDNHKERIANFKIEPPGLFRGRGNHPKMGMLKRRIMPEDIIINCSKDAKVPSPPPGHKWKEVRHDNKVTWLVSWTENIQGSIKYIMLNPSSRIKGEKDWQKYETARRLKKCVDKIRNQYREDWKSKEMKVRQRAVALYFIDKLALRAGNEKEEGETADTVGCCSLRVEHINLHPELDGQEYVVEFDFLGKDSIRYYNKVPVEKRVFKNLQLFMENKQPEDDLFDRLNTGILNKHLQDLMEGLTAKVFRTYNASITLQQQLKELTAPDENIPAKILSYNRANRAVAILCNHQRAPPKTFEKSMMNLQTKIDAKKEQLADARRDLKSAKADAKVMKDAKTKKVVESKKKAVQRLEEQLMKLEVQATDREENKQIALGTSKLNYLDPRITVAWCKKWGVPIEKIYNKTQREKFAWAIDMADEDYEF

Structure (SMILES)	inhibition
O=c1c2ccccc2nc2n1[C@H](c1ccc(C(F)(F)F)cc1)C[C@@H]2O	Active

What follows are molecules tested against T1, DNA topoisomerase 1 (Homo sapiens) (assay: Inhibition of human Topoisomerase 1 at 0.1 to 100 uM). Conditions: dose 0.1-100 µM.

Structure (SMILES)	inhibition
O=c1nc2n(c3ccccc13)C(c1ccc(C(F)(F)F)cc1)c1cc3ccccc3nc1-2 (configuration not stated)	Active
COc1ccc(C2c3cc4ccccc4nc3-c3nc4ccccc4c(=O)n32)cc1 (configuration not stated)	Active
CSc1ccc(C2c3cc4ccccc4nc3-c3nc(=O)c4ccccc4n32)cc1 (configuration not stated)	Active
COc1cccc(C2c3cc4ccccc4nc3-c3nc(=O)c4ccccc4n32)c1 (configuration not stated)	Active
Cc1ccc(C2c3cc4ccccc4nc3-c3nc4ccccc4c(=O)n32)cc1 (configuration not stated)	Active
O=c1c2ccccc2nc2n1C(c1ccc(F)cc1)c1cc3ccccc3nc1-2 (configuration not stated)	Active
COc1cc(C2c3cc4ccccc4nc3-c3nc(=O)c4ccccc4n32)cc(OC)c1OC (configuration not stated)	Active
O=c1c2ccccc2nc2n1C(c1ccc(Cl)cc1)c1cc3ccccc3nc1-2 (configuration not stated)	Active
O=c1c2ccccc2nc2n1C(c1cccc(Br)c1)c1cc3ccccc3nc1-2 (configuration not stated)	Active
O=c1nc2n(c3ccccc13)C(c1ccc(Cl)cc1)c1cc3ccccc3nc1-2 (configuration not stated)	Active
O=c1nc2n(c3ccccc13)C(c1ccc(Br)cc1)c1cc3ccccc3nc1-2 (configuration not stated)	Active
O=c1nc2n(c3ccccc13)C(c1ccc(F)cc1)c1cc3ccccc3nc1-2 (configuration not stated)	Active
O=c1nc2n(c3ccccc13)C(c1cccc(Br)c1)c1cc3ccccc3nc1-2 (configuration not stated)	Active
Cc1ccccc1C1c2cc3ccccc3nc2-c2nc3ccccc3c(=O)n21 (configuration not stated)	Active
O=c1nc2n(c3ccccc13)C(c1ccccc1)c1cc3ccccc3nc1-2 (configuration not stated)	Active
Cc1ccccc1C1c2cc3ccccc3nc2-c2nc(=O)c3ccccc3n21 (configuration not stated)	Active
O=c1c2ccccc2nc2n1C(c1ccccc1)c1cc3ccccc3nc1-2 (configuration not stated)	Active
O=c1c2ccccc2nc2n1C(c1ccc(Br)cc1)c1cc3ccccc3nc1-2 (configuration not stated)	Active
COc1cccc(C2c3cc4ccccc4nc3-c3nc4ccccc4c(=O)n32)c1 (configuration not stated)	Active
Cc1ccc(C2c3cc4ccccc4nc3-c3nc(=O)c4ccccc4n32)cc1 (configuration not stated)	Active
COc1ccc(C2c3cc4ccccc4nc3-c3nc(=O)c4ccccc4n32)cc1 (configuration not stated)	Active
CSc1ccc(C2c3cc4ccccc4nc3-c3nc4ccccc4c(=O)n32)cc1 (configuration not stated)	Active
O=c1c2ccccc2nc2n1C(c1ccc(C(F)(F)F)cc1)c1cc3ccccc3nc1-2 (configuration not stated)	Active
COc1cc(C2c3cc4ccccc4nc3-c3nc4ccccc4c(=O)n32)cc(OC)c1OC (configuration not stated)	Active

Each molecule was assayed against T1, DNA topoisomerase 1 (Homo sapiens) (assay: Inhibition of human Topoisomerase 1 at 1 to 100 uM). Conditions: dose 1-100 µM.

Structure (SMILES)	inhibition
CSc1ccc([C@@H]2C[C@H](O)c3nc4ccccc4c(=O)n32)cc1	Active

What follows are molecules tested against T1, DNA topoisomerase 1 (Homo sapiens) (assay: Inhibition of human Topoisomerase 1 at 10 to 100 uM). Conditions: dose 10-100 µM.

Structure (SMILES)	inhibition
O=c1c2ccccc2nc2n1[C@H](c1cccc(Br)c1)C[C@@H]2O	Active
